From patent publication US8338414B2, “Immunosuppressive agent and anti-tumor agent comprising heterocyclic compound as active ingredient” (Zenyaku Kogyo KabushikiKaisha, priority 2005, dated 2012)
Like-named read-outs stand apart in the source and are kept apart here.

What was measured:
[1] = test system: allogeneic mixed lymphocyte reaction; assay: Allogeneic mixed lymphocyte reaction; type: cell-based, mouse; details: Mus musculus, Lymphocyte; C57BL/6N spleen stimulator cells, BALB/c lymph node responder cells, 86 hours, BrdU
Experimental: Spleen cells prepared from C57BL/6N female mice (8-10 weeks old, purchased from Charles River Laboratories Japan Inc.) and peripheral lymph node mononuclear cells prepared from BALB/c female mice (8-10 weeks old, purchased from Charles River Laboratories Japan Inc.) were used as stimulator cells and responder cells, respectively. The respective cells were suspended in RPMI 1640 medium (containing 10% fetal bovine serum, 100 units/mL penicillin, and 0.1 mg/mL streptomycin) (with 2×10^6 cells/mL).

fulminant hepatitis = assay: Fulminant hepatitis model (galactosamine and LPS); type: in vivo, mouse; details: BALB/c mice, 100 mg/kg oral, galactosamine 800 mg/kg and LPS 110 μg/kg i.p.
Experimental: BALB/c male mice (7 weeks old, purchased from Charles River Laboratories Japan Inc.) were used in the experiment. After having orally administered the test substances suspended in 5% HPC, galactosamine (800 mg/kg) and LPS (110 μg/kg) were intraperitoneally administered. Then, survival rates at 72 hours after administration were obtained.

Jurkat cells = assay: Proliferation inhibitory activity on hematologic neoplasm cells, Jurkat; type: cell-based; details: Homo sapiens, Jurkat, 72 h; 3 days, Alamar Blue
Experimental: (§1) Daudi cells (5×10^5 cells/mL), Jurkat cells (5×10^5 cells/mL), THP-1 cells (5×10^5 cells/mL), U 937 cells (5×10^5 cells/mL), and HL 60 cells (5×10^5 cells/mL) suspended in RPMI 1640 medium (containing 10% fetal bovine serum, 10 mM HEPES, 1 mM pyruvic acid, 4.5 g/L glucose, 100 units/mL penicillin, and 0.1 mg/mL streptomycin) were seeded in 96 well plates at a capacity of 0.135 mL per well. Serial dilutions of test substances were added to respective wells at 15 μL/well, and incubated under conditions of carbon dioxide 5% at 37° C. for 3 days. Thereafter, Alamar Blue solution was added at 50 μL, and after incubation for one day, the fluorescence intensity at 590 nm using an excitation wavelength of 530 nm was determined by Cytoflour 4000 (Applied Biosystems).

[2] = test system: human peripheral blood mononuclear cells; assay: Proliferation inhibition assay for human peripheral blood mononuclear cells; type: cell-based; details: Homo sapiens, 72 h; PBMC, anti-CD3 and anti-CD28 antibody, 3 days, Alamar Blue
Experimental: 4 mL of blood collected from healthy subjects was placed on 3 mL of MonoPoly Resolving Medium, and after centrifugation, the mononuclear cell (PBMC) fraction was collected. After washing with saline, PBMC (1×10^5 cells/mL) was suspended in RPMI 1640 medium (containing 10% fetal bovine serum, 10 mM HEPES, 1 mM pyruvic acid, and 4.5 g/L glucose). Next, after having added an anti-CD28 antibody (1 μg/mL) to the suspension, they were seeded on an anti-human CD3 T cell activation plate (BD Bioscience) at a capacity of 0.135 mL per well. Then, serial dilutions of test substances were added to respective wells, and incubated under conditions of carbon dioxide 5% at a temperature 37° C. After 3 days, Alamar Blue solution was added at 50 μL per well, and after incubation for one day, a fluorescence intensity at 590 nm using an excitation wavelength of 530 nm was determined by Cytoflour 4000 (Applied Biosystems).

HL 60 cells = assay: Proliferation inhibitory activity on hematologic neoplasm cells, HL60; type: cell-based; details: Homo sapiens, HL-60, 72 h; 3 days, Alamar Blue
Experimental: as §1

Daudi cells = assay: Proliferation inhibitory activity on hematologic neoplasm cells, Daudi; type: cell-based; details: Homo sapiens, Daudi, 72 h; 3 days, Alamar Blue
Experimental: as §1

U 937 cells = assay: Proliferation inhibitory activity on hematologic neoplasm cells, U937; type: cell-based; details: Homo sapiens, U-937, 72 h; 3 days, Alamar Blue
Experimental: as §1

mouse spleen cells = assay: Proliferation inhibition assay for mouse spleen cells; type: cell-based; details: 72 h, 3 days, Alamar Blue
Experimental: Spleen cells (2×10^6 cells/mL) prepared from C57BL/6N female mice (8 weeks old, purchased from Charles River Laboratories Japan Inc.) were suspended in RPMI 1640 medium (containing 10% fetal bovine serum, 10 mM HEPES, 1 mM pyruvic acid, 4.5 g/L glucose, 100 units/mL penicillin, and 0.1 mg/mL streptomycin), and seeded in wells of a 96 well plate at 0.225 mL per well. Serial dilutions of test substances were added to respective wells, and then concanavalin A (Con A, 3 μg/mL), lipopolysaccharide (LPS, 100 μg/mL), or an anti-mouse IgM antibody (100 μg/mL) were added. Thereafter, they were incubated under conditions of carbon dioxide 5% at a temperature 37° C. for 3 days. Next, Alamar Blue solution was added at 50 μL per 150 μL, and after having cultured for one day, the fluorescence intensity at 590 nm using an excitation wavelength of 530 nm was determined by Cytoflour 4000 (Applied Biosystems).

[3] = test system: Rabbit synoviocytes HIG-82; assay: Inhibition assay for proliferation of rabbit synoviocyte; type: cell-based; details: Oryctolagus cuniculus, 72 h; HIG-82, 3 days, Alamar Blue
Experimental: Rabbit synoviocytes HIG-82 suspended in HAM medium (containing 10% fetal bovine serum, 25 mM HEPES, and 0.1 mg/mL kanamycin) (with 4×10^4 cells/mL) were seeded in wells of a 96 well plate at 0.135 mL per well. Then, 15 μL of each of serial dilutions of test substances was added to a respective well, and incubated under conditions of carbon dioxide 5% at a temperature 37° C. Alamar Blue solution was added at 50 μL per well on day 0 and day 3, and incubated for one day, and thereafter fluorescence intensity at 590 nm using an excitation wavelength of 530 nm was determined by Cytoflour 4000 (Applied Biosystems).

THP-1 cells = assay: Proliferation inhibitory activity on hematologic neoplasm cells, THP-1; type: cell-based; details: Homo sapiens, THP-1, 72 h; 3 days, Alamar Blue
Experimental: as §1

WiDr colon cancer cells = assay: Proliferation inhibitory activity on solid tumor cells, WiDr; type: cell-based; details: Homo sapiens, 72 hours
Experimental: (§2) Used in the test were MCF-7 cells which were established from human breast cancer and were cultured routinely under the conditions of 37° C. and 5% CO2, in MEM medium supplemented with 10% fetal calf serum, 25 mM of HEPES and 0.1 mg/ml kanamycin. The MCF-7 cells in a logarithmic growth phase were treated with trypsin/EDTA to prepare single cell suspension adjusted to 4.0×10^4 cells/ml in MEM medium (supplemented with 10% fetal calf serum, 25 mM of HEPES and 0.1 mg/ml kanamycin). Test compounds were dissolved in DMSO and diluted with RPMI 1640 medium (supplemented with 10% fetal calf serum, 25 mM of HEPES and 0.1 mg/ml kanamycin) to a concentration of […] to 2.0×10^−9M.
(§3) The cell suspension was filled in a 96-wells microplate at a rate of 0.1 ml per well and was cultured for 24 hours so as to make the cells to adhere to the microplate. Then, it was added with 0.1 ml of the sample solution and cultured at 37° C. for 72 hours in 5% CO2.
(§4) 50% Growth inhibition concentrations (GI50 μM) were calculated from growth inhibitions at various sample concentrations.
(§5) In the foregoing, when the cells other than MCF-7 are used, instead of adding 10% fetal bovine serum, the following media were used, and the following single cell suspensions were prepared. • PC-3 prostate cancer cells: 10% fetal bovine serum in F12K medium, single cell suspension of 2×10^4 cells; • A549 lung cancer cells: 10% fetal bovine serum in DMEM medium, single cell suspension of 1.5×10^4 cells; • WiDr colon cancer cells: 10% fetal bovine serum in MEM medium, single cell suspension of 3×10^4 cells; • B16F10 melanoma cells: 10% fetal bovine serum in RPMI 1640 medium, single cell suspension of 1×10^4 cells;

[4] = test system: PC-3 prostate cancer cells; assay: Proliferation inhibitory activity on solid tumor cells, PC-3; type: cell-based; details: 72 hours
Experimental: as §2, §3, §4, §5

B16F10 melanoma cells = assay: Proliferation inhibitory activity on solid tumor cells, B16F10; type: cell-based; details: Mus musculus, B16-F10; 72 hours
Experimental: as §2, §3, §4, §5

MCF-7 cells = assay: Proliferation inhibitory activity on solid tumor cells, MCF-7; type: cell-based; details: Homo sapiens, MCF7; 72 hours
Experimental: as §2, §3, §4

A549 lung cancer cells = assay: Proliferation inhibitory activity on solid tumor cells, A549; type: cell-based; details: Homo sapiens, 72 hours
Experimental: as §2, §3, §4, §5

[5] = LPS 100 μg/mL, read-out: Inhibition of LPS response
[6] = concanavalin A 3 μg/mL, read-out: Inhibition of Con A response

SMILES | IC50 (Jurkat cells) [nM] | IC50 (Daudi cells) [nM] | IC50 (THP-1 cells) [nM] | GI50 (WiDr colon cancer cells) [nM] | melting point [°C] | GI50 [4] [nM] | GI50 (B16F10 melanoma cells) [nM] | GI50 (MCF-7 cells) [nM] | GI50 (A549 lung cancer cells) [nM] | IC50 [1] [nM] | Survival Rate after 72 Hours (fulminant hepatitis) [%] | IC50 [2] [nM] | IC50 (HL 60 cells) [nM] | IC50 (U 937 cells) [nM] | IC50 (mouse spleen cells; [5]) [nM] | IC50 (mouse spleen cells; anti-mouse IgM antibody 100 μg/mL, read-out: Inhibition of Anti-IgM antibody response) [nM] | IC50 (mouse spleen cells; [6]) [nM] | IC50 [3] [nM]
Nc1nc2ccccc2n1-c1nc(N2CCOCC2)nc(N2CCOCC2)n1 [Compound 6, 2-(2-Aminobenzimidazol-1-yl)-4,6-dimorpholino-1,3,5-triazine] | 6620 | 803 | 5540 |  |  |  |  |  |  | 3630 | 40 | 2080 | > 10000 | > 10000 | 100 to 10000 | 100 to 10000 | 100 to 10000 | 6350
OCCN1CCN(c2nc(N3CCOCC3)nc(-n3c(C(F)F)nc4ccccc43)n2)CC1 [Compound 27, 2-(2-Difluoromethylbenzimidazol-1-yl)-4-[4-(2-hydroxyethyl)piperazin-1-yl]-6-morpholino-1,3,5-triazine] | 3600 | 324 | 730 | 1320 | 174 to 177 | 310 | 4630 | 1140 | 1120 |  |  |  |  |  | 100 to 10000 |  | ≤ 1 | 1560
O=C(Cc1ccccc1)N1CCN(c2nc(N3CCOCC3)nc(-n3c(C(F)F)nc4ccccc43)n2)CC1 [Compound 29, 2-(2-Difluoromethylbenzimidazol-1-yl)-4-(4-benzylcarbonylpiperazin-1-yl)-6-morpholino-1,3,5-triazine] |  |  |  | 2580 | 178 to 181 | 320 | 3930 | 700 | 1320 |  |  |  |  |  |  |  |  | 
CC(=O)CN1CCN(c2nc(N3CCOCC3)nc(-n3c(C(F)F)nc4ccccc43)n2)CC1 [Compound 30, 4-(4-Acetonylpiperazin-1-yl)-2-(2-difluoromethylbenzimidazol-1-yl)-6-morpholino-1,3,5-triazine] |  |  |  | 3740 | 79 to 81 | 770 | 3320 | 410 | 1520 |  |  |  |  |  |  |  |  | 
O=C(c1ccco1)N1CCN(c2nc(N3CCOCC3)nc(-n3c(C(F)F)nc4ccccc43)n2)CC1 [Compound 31, 2-(2-Difluoromethylbenzimidazol-1-yl)-4-[4-(2-furoyl)piperazin-1-yl]-6-morpholino-1,3,5-triazine] |  |  |  | 1430 | 220 to 222 | 320 | 1510 | 50 | 650 |  |  |  |  |  |  |  |  | 
CN(C)C(=O)N1CCN(c2nc(N3CCOCC3)nc(-n3c(C(F)F)nc4ccccc43)n2)CC1 [Compound 32, 2-(2-Difluoromethylbenzimidazol-1-yl)-4-[4-(N,N-dimethylcarbamoyl)piperazin-1-yl]-6-morpholino-1,3,5-triazine] |  |  |  | 1330 | 203 to 205 | 380 | 2140 | < 40 | 830 |  |  |  |  |  |  |  |  | 

The remaining molecules from weak to strong by GI50 (WiDr colon cancer cells), led by results:

IC50 (Jurkat cells) [nM] | IC50 (Daudi cells) [nM] | IC50 (THP-1 cells) [nM] | GI50 (WiDr colon cancer cells) [nM] | melting point [°C] | GI50 [4] [nM] | GI50 (B16F10 melanoma cells) [nM] | GI50 (MCF-7 cells) [nM] | GI50 (A549 lung cancer cells) [nM] | SMILES | IC50 [1] [nM] | Survival Rate after 72 Hours (fulminant hepatitis) [%] | IC50 [2] [nM] | IC50 (HL 60 cells) [nM] | IC50 (U 937 cells) [nM] | IC50 (mouse spleen cells; [5]) [nM] | IC50 (mouse spleen cells; anti-mouse IgM antibody 100 μg/mL, read-out: Inhibition of Anti-IgM antibody response) [nM] | IC50 (mouse spleen cells; [6]) [nM] | IC50 [3] [nM]
 |  |  | 2100 | 198 to 202 | 730 | 2840 | 100 | 1220 | CCC(=O)N1CCN(c2nc(N3CCOCC3)nc(-n3c(C(F)F)nc4ccccc43)n2)CC1 [Compound 35, 2-(2-Difluoromethylbenzimidazol-1-yl)-4-morpholino-6-(4-propionylpiperazin-1-yl)-1,3,5-triazine] |  |  |  |  |  |  |  |  | 
 |  |  | 2070 |  | 550 | 2910 | 140 | 1380 | OCCCN1CCN(c2nc(N3CCOCC3)nc(-n3c(C(F)F)nc4ccccc43)n2)CC1 [Compound 34, 2-(2-Difluoromethylbenzimidazol-1-yl)-4-[4-(3-hydroxypropyl)piperazin-1-yl]-6-morpholino-1,3,5-triazine] |  |  |  |  |  |  |  |  | 
 |  |  | 1460 | 72 to 75 | 510 | 2910 | < 40 | 1050 | COCC(=O)N1CCN(c2nc(N3CCOCC3)nc(-n3c(C(F)F)nc4ccccc43)n2)CC1 [Compound 33, 2-(2-Difluoromethylbenzimidazol-1-yl)-4-(4-methoxylacetylpiperazin-1-yl)-6-morpholino-1,3,5-triazine] |  |  |  |  |  |  |  |  | 
1590 | 190 | 379 | 920 | 235 to 237 | 270 | 3210 | 980 | 990 | O=C1CCN(c2nc(N3CCOCC3)nc(-n3c(C(F)F)nc4ccccc43)n2)CCN1 [Compound 25, 2-(2-Difluoromethylbenzimidazol-1-yl)-4-morpholino-6-(5-oxo-1,4-diazepan-1-yl)-1,3,5-triazine] |  |  |  |  |  | 100 to 10000 |  | 1 to 100 | 990
